Our source for the IC50 values is patent US6933290B2, “2-{N-(2-amino-3-(heteroaryl or aryl)propionyl)-aminoacyl}-amino}-alkylboronic acid derivatives” (Novartis AG, priority 2001, dated 2005).

Usually IC50 stands for the point on the concentration scale where inhibition reaches its midpoint.

This experiment has as its target T1, chymotrypsin-like activity of the 20S proteasome (Homo sapiens, UniProt P20618+P28074).
T1 construct: purified human placenta 20S proteasome; tissue Diabetes Forschungsinstitut, Düsseldorf, Germany; host or cells: human placenta
In words: Inhibition of the chymotrypsin-like activity of the 20S proteasome (Suc-LLVY-AMC hydrolysis). Format: biochemical. The following applies: purified human placenta 20S proteasome, Suc-LLVY-AMC substrate, read-out: IC50 [μM] (results of one or two experiments). An excerpt: It is based on the hydrolysis of the fluorogenic peptide Suc-LLVY-AMC (Succinyl-leucine-leucine-vatine-tyrosine-7-amino-4-methyl-coumarin), which is cleaved exclusively at the Y-AMC bond by the 20S proteasome. Hydrolysis of this peptide is accompanied by an increase in fluorescence intensity (λex (excitation wavelength): 355 nm; μem (emission wavelength): 460 nm) due to release of the […] that accompanies diffusion apart of the hydrolysis product Suc-LLVY.
2 μl of a 1 mM solution of a test compound in DMSO (dimethylsulfoxide, 20 μM final concentration in the well) are preincubated for 60 min at room temperature in black 96-well microtiter plates together with a mixture of 1 μl purified human placenta 20S proteasome (Diabetes Forschungsinstitut, DÜsseldorf, Germany; about 100 ng proteasome, depending on the proteasome preparation) and 47 μl buffer-Ca (5 mM CaCl2, 20 mM Tris/HCl (Tris-(hydroxymethyl)-amino-methane hydrochloride) pH 8.0). 3 μl of a 2.67 mM solution of Suc-LLVY-AMC (Bachem, Switzerland) in DMSO (80 μM final concentration in the well) and 47 μl buffer-Ca are mixed and added. The resulting mixture is incubated for 3-24 h at 37° C. If desired, proteolysis of the substrate can be stopped by addition of 50 μl stop solution (100 mM monochloroacetic acid, 130 mM NaOH, 100 mM acetic acid, pH=4.3). The fluorescence is monitored with a FLUOROSKAN ASCENT™ microtiter plate reader.
For each measurement series two control experiments are carried out: • 1.) 0% value: 2 μl DMSO are used in the above described assay instead of 2 μl of a 1 mM solution of a test compound in DMSO and 48 μl buffer-Ca instead of a mixture of 47 μl buffer-Ca and 1 μl purified proteasome. • 2.) 100% value: in the above described assay 2 μl DMSO are used instead of 2 μl of a 1 mM solution of the test compound in DMSO. Calculation [formula]
The IC50 value is defined as that concentration of a compound at which the remaining activity is 50% compared to the […].

“And” between values parts separate entries of the source, which are not always exact repeats. Identical values can stand only once.

In the case of `COc1ccc(C[C@H](Nc2cccc(-c3ccccc3)c2)C(=O)N[C@@H](C)C(=O)N[C@@H](CC(C)C)B2O[C@@H]3C[C@@H]4C[C@@H](C4(C)C)[C@]3(C)O2)c(OC)c1OC` [Example 39, (S)-2-(Biphenyl-3-ylamino)-N-{(S)-1-[(R)-3-methyl-1-((1S,2S,6R,8S)-2,9,9-trimethyl-3,5-dioxa-4-bora-tricyclo[6.1.1.0^2,6]dec-4-yl)-butylcarbamoyl]-ethyl}-3-(2,3,4-trimethoxy-phenyl)-propionamide], the concentration for half-maximal inhibition (IC50) was 0.0019 µM.
Next, `COc1cc(C[C@H](Nc2cccc(-c3ccccn3)c2)C(=O)N[C@H](C(=O)N[C@@H](CC(C)C)B(O)O)C(C)C)cc(OC)c1OC` [Example 14, (R)-3-Methyl-1-[(S)-3-methyl-2-[(S)-2-(3-pyridin-2-yl-phenylamino)-3-(3,4,5-trimethoxy-phenyl)-propionylamino]-butyrylamino)-butylboronic acid]: 0.0017 µM; `COc1cc(C[C@H](Nc2cccc(-c3ccccc3)c2)C(=O)N[C@H](C(=O)NC(CC(C)C)B2OC(C)(C)C(C)(C)O2)C(C)C)cc(OC)c1OC` (stereo partly drawn) [Example 23, (S)-2-[(S)-2-(Biphenyl-3-ylamino)-3-(3,4,5-trimethoxy-phenyl)-propionylamino]-3-methyl-N-[3-methyl-1-(4,4,5,5-tetramethyl-[1,3,2]dioxaborolan-2-yl)-butyl]-butyramide]: 0.0021 µM; `COc1cc(C[C@H](Nc2cccc(C(C)C)c2)C(=O)N[C@H](C(=O)N[C@@H](CC(C)C)B2O[C@@H]3C[C@@H]4C[C@@H](C4(C)C)[C@]3(C)O2)C(C)C)cc(OC)c1OC` [Example 11, (S)-2-[(S)-2-(3-Isopropyl-phenylamino)-3-(3,4,5-trimethoxy-phenyl)-propionylamino]-3-methyl-N-[(R)-3-methyl-1-((1S,2S,6R,8S)-2,9,9-trimethyl-3,5-dioxa-4-bora-tricyclo[6.1.1.0^2,6]dec-4-yl)-butyl]-butyramide]: 0.0039 µM.
Next, `COc1ccc(C[C@H](Nc2cccc(-c3ccccc3)c2)C(=O)N[C@@H](C)C(=O)N[C@@H](CC(C)C)B(O)O)cc1OC` [Example 44, (R)-1-{(S)-2-[(S)-2-(Biphenyl-3-ylamino)-3-(3,4-dimethoxy-phenyl)-propionylamino]-propionylamino}-3-methyl-butylboronic acid]: 0.001 µM; `COc1ccc(C[C@H](Nc2cccc(-c3ccccc3)c2)C(=O)N[C@@H](CC(C)C)C(=O)N[C@@H](CC(C)C)B(O)O)cc1` [Example 36, (R)-1-{(S)-2-[(S)-2-(Biphenyl-3-ylamino)-3-(4-methoxy-phenyl)-propionylamino]-4-methyl-pentanoylamino}-3-methyl-butylboronic acid]: 0.0023 µM.
The value for `COc1ccc(C[C@H](NC(=O)CCc2ccccc2)C(=O)N[C@H](C(=O)N[C@@H](CC(C)C)B2O[C@@H]3C[C@@H]4C[C@@H](C4(C)C)[C@]3(C)O2)C(C)C)c(OC)c1OC` [Example 5, (S)-3-Methyl-N-[(R)-3-methyl-1-((1S,2S,6R,8S)-2,9,9-trimethyl-3,5-dioxa-4-bora-tricyclo[6.1.1.0^2,6]dec-4-yl)-butyl]-2-[(S)-2-(3-phenyl-propionyl-amino)-3-(2,3,4-trimethoxyphenyl)-propionylamino]-butyramide] was 0.0013 µM and 0.0006 µM; that for `COc1ccc(C[C@H](NC(=O)CCc2ccccc2)C(=O)N[C@@H](C)C(=O)N[C@@H](CC(C)C)B2O[C@@H]3C[C@@H]4C[C@@H](C4(C)C)[C@]3(C)O2)c(OC)c1OC` [Example 47, (S)-N-{(S)-1-[(R)-3-Methyl-1-((1S,2S,6R,8S)-2,9,9-trimethyl-3,5-dioxa-4-bora-tricyclo[6.1.1.0^2,6]dec-4-yl)-butylcarbamoyl]-ethyl}-2-(3-phenyl-propionylamino)-3-(2.3.4 trimethoxy-phenyl)-propionamide] was 0.0008 µM; that for `COc1ccc(C[C@H](Nc2cccc(-c3ccccc3)c2)C(=O)N[C@@H](C)C(=O)N[C@@H](CC(C)C)B(O)O)cc1` [Example 42, (R)-1-{(S)-2-[(S)-2-(Biphenyl-3-ylamino)-3-(4-methoxy-phenyl)-propionylamino]-propionylamino}-3-methyl-butylboronic acid] was 0.0019 µM.
As to `COc1ccc(C[C@H](Nc2cccc(-c3ccccc3)c2)C(=O)N[C@H](C(=O)N[C@@H](CC(C)C)B2O[C@@H]3C[C@@H]4C[C@@H](C4(C)C)[C@]3(C)O2)C(C)C)c(OC)c1OC` [Example 15, (S)-2-[(S)-2-(Biphenyl-3-ylamino)-3-(2,3,4-trimethoxy-phenyl)-propionylamino]-3-methyl-N-[(R)-3-methyl-1-((1S,2S,6R,8S)-2,9,9-trimethyl-3,5-dioxa-4-bora-tricyclo[6.1.1.0^2,6]dec-4-yl)-butyl]-butyramide], the IC50 was 0.0071 µM.
`COc1cc(C[C@H](Nc2cccc(C(C)C)c2)C(=O)N[C@H](C(=O)N[C@@H](CC(C)C)B(O)O)C(C)C)cc(OC)c1OC` [Example 12, (R)-1-{(S)-2-[(S)-2-(3-Isopropyl-phenylamino)-3-(3,4,5-trimethoxy-phenyl)-propionylamino]-3-methyl-butyrylamino}-3-methyl-butylboronic acid]: the IC50 came to 0.0038 µM.
The value for `COc1ccc(C[C@H](Nc2cccc(-c3ccccc3)c2)C(=O)N[C@H](C(=O)N[C@@H](Cc2ccccc2)B2O[C@@H]3C[C@@H]4C[C@@H](C4(C)C)[C@]3(C)O2)C(C)C)cc1` [Example 51, (S)-2-[(S)-2-(Biphenyl-3-ylamino)-3-(4-methoxy-phenyl)-propionylamino]-3-methyl-N-[(R)-2-phenyl-1-((1S,2S,6R,8S)-2,9,9-trimethyl-3,5-dioxa-4-bora-tricyclo[6.1.1.0^2,6]dec-4-yl)-ethyl]-butyramide] was 0.0043 µM.
For the compound `COc1cc(C[C@@H](Nc2cccc(-c3ccccc3)c2)C(=O)N[C@H](C(=O)N[C@@H](CC(C)C)B2O[C@@H]3C[C@@H]4C[C@@H](C4(C)C)[C@]3(C)O2)C(C)C)cc(OC)c1OC` [Example 21, (S)-2-[(R)-2-(Biphenyl-3-ylamino)-3-(3,4,5-trimethoxy-phenyl)-propionylamino]-3-methyl-N-[(R)-3-methyl-1-((1S,2S,6R,8S)-2,9,9-trimethyl-3,5-dioxa-4-bora-tricyclo[6.1.1.0^2]dec-4-yl)-butyl]-butyramide], the IC50 was 0.0015 µM.
With “(R)-1-{(S)-2-[(S)-2-(3-Isopropyl-phenylamino)-3-(3,4,5-trimethoxy-phenyl)-propionylamino]-propionylamino}-3-methyl-butylboronic acid [Example 46]”, the concentration for half-maximal inhibition (IC50) came out at 0.0019 µM.
The value for `CC(C)C[C@H](NC(=O)[C@@H](NC(=O)[C@H](Cc1ccc(OCc2ccccc2)cc1)Nc1cccc(-c2ccccc2)c1)C(C)C)B1O[C@@H]2C[C@@H]3C[C@@H](C3(C)C)[C@]2(C)O1` [Example 17, (S)-2-[(S)-3-(4-Benzyloxy-phenyl)-2-(biphenyl-3-ylamino)-propionylamino]-3-methyl-N-[(R)-3-methyl-1-((1S,2S,6R,8S)-2,9-trimethyl-3,5-dioxa-4-bora-tricyclo[6.1.1.0^2,6]dec-4-yl)-butyl]-butyramide] was 0.0093 µM; that for `COc1ccc(C[C@H](NC(=O)Cc2cccc(Oc3ccccc3)c2)C(=O)N[C@H](C(=O)N[C@@H](CC(C)C)B(O)O)C(C)C)c(OC)c1OC` [Example 4] was 0.0019 µM and 0.0015 µM; that for `CC(C)C[C@H](NC(=O)[C@@H](NC(=O)[C@H](Cc1ccc(OCc2ccccc2)cc1)NC(=O)Cc1cccc(OCc2ccccc2)c1)C(C)C)B(O)O` [Example 30, (R)-1-((S)-2{(S)-3-(4-Benzyloxy-phenyl)-2-[2-(3-benzyloxy-phenyl)-acetylamino]-propionylamino}-3-methyl-butyrylamino)-3-methyl-butylboronic acid] was 0.0059 µM.
The value for `COc1ccc(C[C@H](Nc2cccc(-c3ccccc3)c2)C(=O)N[C@H](C(=O)N[C@@H](CC(C)C)B2O[C@@H]3C[C@@H]4C[C@@H](C4(C)C)[C@]3(C)O2)C(C)C)cc1OC` [Example 9, (S)-2-[(S)-2-(Biphenyl-3-ylamino)-3-(3,4-dimethoxy-phenyl)-propionylamino]-3-methyl-N-[(R)-3-methyl-1-((1S,2S,6R,8S)-2,9,9-trimethyl-3,5-dioxa-4-bora-tricyclo[6.1.1.0^2,6]dec-4-yl)-butyl]-butyramide] was 0.0017 µM and 0.0022 µM.
